Measurements reported in patent US11987579B2 (Duke University, priority 2018, dated 2024).
Where two headings read alike, the source gives them in different places.

Assays:
[1] = system: Wnt/β-catenin target gene protein levels; assay: Evaluation of Wnt signaling inhibition by Western blot; format: cell-based; settings: 5 μM, 18 h; HCT116, SW-480 and CRC240 cells
Experimental: All cells were plated in 6 well-plates and allowed to attach overnight in a 5% CO2 incubator at 37° C. to reach 50-70 percent confluency. The cells were then treated with the indicated compound for 18 hours. Whole cell lysates were prepared by adding 200 μL 1.5× Laemmli sample buffer. Cytosolic lysates were prepared by treating cells with hypotonic buffer and dispersing cell aggregates by drawing the lysate buffer in and out a syringe equipped with 25G×1 needles. The cytosolic lysate was centrifuged at 15,000 rpm for 120 minutes, 200 μL of cytosol lysate was collected and 67 μL of 4× Laemmli sample buffer was added. Whole cell lysates were subjected to Western blot analysis using antibodies to c-Myc (Santa Cruz Biotechnology, catalog number SC-40), Cyclin D1 (Cell Signaling Technology, catalog number 2978), and Survivin (Cell Signaling Technology, catalog number 2808). Cytosol lysate were subjected to Western blot analysis using antibodies to β-catenin (Santa Cruz Biotechnology SC-7963) and Axin2 (Cell Signaling Technology, catalog number 2151). An antibody to β-actin (Santa Cruz Biotechnology, catalog number SC-47798) was used as a loading control.

[2] = Pharmacokinetic analysis of DK419 in mouse plasma after oral dose; format: in vivo, NOD/SCID mice; settings: mice; for Cmax: read-out: Cmax (second line)
Experimental: DK419 was dissolved in 10% N-Methyl pyrrolidinone (Sigma, catalog number 328634) and 90% PEG300 (Sigma, catalog number 20237) at 0.2 mg/mL, and dosed orally to NOD/SCID mice (n=4) at 1 mg/kg. Blood samples (20 μL) were collected serially from tail vein into vials containing 1 μL of 1000 U/mL heparin at the following time-points: pre-dose, 0.25, 0.5, 1, 2, 4, 8, 24, 48, and 72 h after drug administration. After centrifugation at 1300 g for 5 min at room temperature, plasma was separated and stored at −80° C. until the analysis.
Quantification of DK419 in mouse plasma was started by vigorous agitation of 4 μL sample, 10 μL of 20 ng/mL DK4-106-3 (in-house made internal standard analog), 20 μL of water, and 100 μL of ethyl-acetate. After centrifugation at 16,000 g for 5 min at room temperature, 80 μL of organic (upper) layer was dried under nitrogen stream, residue reconstituted with a mixture of 50% mobile phase A (10 mM ammonium acetate, 0.1% formic acid) and 50% mobile phase B (methanol), and 5 μL injected into LC/MS/MS system. Analysis was performed on Shimadzu series 20A LC/Applied Biosystems/SCIEX API 4000 QTrap MS/MS instrument. Column: Agilent Eclipse 4.6×50 ram, 1.8 μm at 50° C. Elution gradient: 0-2 min 50-90% B, 2-2.5 min 90% B, 2.5-2.7 min, 90-50% B; flow […]. MS/MS transitions followed: 405.8/218.9 (DK419) and 331.8/311.8 (DK4-106-3; int. std.). Run time: 5 min. Calibration samples were prepared by adding pure DK419 to pooled mouse plasma in 2.4 ng/mL (LLOQ)-1000 ng/mL range and analyzed alongside the PK study samples. The calibration curve was linear (r=0.999).

[3] = system: Fzd1-GFP; assay: Frizzled 1-GFP (Fzd1-GFP) internalization assay; format: cell-based; settings: 12.5 μM, 6 h, 37° C., U20S cells stably expressing Fzd1-GFP, confocal microscopy, vs DMSO
Experimental: The Frizzled 1-GFP (Fzd1-GFP) assay was performed following a procedure similar to that previously reported (Chen et al., Biochemistry 2009, 48, 10267). Briefly, U20S cells stably expressing Fzd1-GFP were plated in con local dishes and incubated at 37° C. with 5% CO2. After 24 hours the cells were treated with 12.5 μM of test compound (dissolved in DMSO) or DMSO alone in media as a control for 6 hours at 37° C. and then fixed with 4% paraformaldehyde. The cells were then examined by microscopy using an LSM 510-Meta confocal microscope (Carl Zeiss, Thornwood, N.Y., USA) equipped with 40× and 100×apo chromat objectives. GFP was excited using a 488-nm argon laser line. Images were processed using the LSM software Image Browser.

[4] = niclosamide 200 mg/kg oral, mice, non-compartmental, cited from earlier work
[5] = system: HCT116 cells; settings: 0.5 and 1.5 μM; cited from earlier work
[6] = DK419 1 mg/kg oral, compartmental
[7] = DK419 1 mg/kg oral, non-compartmental

Structure (SMILES): O=C(Nc1ccc(C(F)(F)F)cc1)c1cc(Cl)cc2nc(C(F)(F)F)[nH]c12 [DK419, 6-chloro-2-(trifluoromethyl)-N-(4-(trifluoromethyl)phenyl)-1H-benzo[d]imidazole-4-carboxamide]
- levels of Axin2, β-catenin, c-Myc, Cyclin D1 and Survivin by Western blot [1]: reduced levels
- AUCinf [2, 6]: 16300 ng·h/mL (per kg BW)
- AUCinf/DOSE [2, 6]: 16.3 µg·h/mL (per mg)
- t1/2-absorption [2, 6]: 2.0 h
- t1/2-elimination [2, 6]: 10.8 h
- Tmax ([2]; DK419 1 mg/kg oral, compartmental, 1st order extrav. input, 1st order elimination): 5.85 h
- Cmax [2, 6]: 1790 nM
- AUCinf [2, 7]: 16900 ng·h/mL (per kg BW)
- AUCinf/DOSE [2, 7]: 16.9 µg·h/mL (per mg)
- CL/F [2, 7]: 0.06 L/h (per kg BW)
- MRT [2, 7]: 15.8 h
- t1/2-elimination [2, 7]: 9.2 h
- Tmax ([2]; DK419 1 mg/kg oral, non-compartmental extravascular input): 4.5 h
- AUC0-LAST ([2]; DK419 1 mg/kg oral, non-compartmental, 0-72 h): 16800 ng·h/mL (per kg BW)
- Cmax [2, 7]: 1840 nM
- CL/F ([2]; NOD/SCID, mouse, plasma, DK419 1 mg/kg oral, compartmental, read-out: CL/F (converted)): 1 mL/min/kg
- time for which plasma levels were sustained ([2]; single 1 mg/kg oral dose): more than 24 hours
- plasma concentration at 24 hours relative to its IC50 in the TOPFlash and MTS assays ([2]; single 1 mg/kg oral dose, 24 hours): 3 fold
- Fzd1-GFP receptor internalization (green fluorescent internal puncta) [3]: robust punctate pattern

Structure (SMILES): O=C(Nc1ccc([N+](=O)[O-])cc1Cl)c1cc(Cl)ccc1O [Niclosamide, reference compound]
- AUC0-LAST ([4]; 0-24 h): 1010 ng·h/mL (per kg BW)
- AUCinf [4]: 1020 ng·h/mL (per kg BW)
- MRT [4]: 6.8 h
- Cmax ([4]; read-out: Cmax (second line)): 2730 nM
- levels of Axin2, β-catenin, c-Myc, Cyclin D1 and Survivin by Western blot [1]: reduced levels
- oxygen consumption rate in HCT116 cells [5]: caused oxygen consumption rate to increase
- Fzd1-GFP receptor internalization (green fluorescent internal puncta) [3]: robust punctate pattern
